Measured values: patent US12558386B2, “Methods and compositions to modulate antibiotic resistance and gastrointestinal microbiota” (OHIO STATE INNOVATION FOUNDATION, priority 2018, dated 2026)
Converted amounts (≈) assume the structure as drawn. Read-outs that look alike come from different tables or passages of the source.

Legend:
E. coli CA-1 = assay: MIC assessment (TREK Sensititre); format: cell-based, Escherichia coli
Description: Bacterial strains. Multiple Amp^r strains from feces of broiler chickens without antibiotic treatment were recovered on Columbia blood Agar base (Becton, […] Dickinson and Company, Franklin Lakes, NJ) supplemented with 5% defibrinated sheep blood (Thermo Scientific™, Grand Island, NY).
(§1) Minimum inhibition concertation (MIC) assessment. A TREK Sensititre diagnostic system (Thermo scientific, Oakwood Village, OH, USA) was used to assess the AR phenotype and MIC of isolated strains. Protocols to use this system can be found on www.trekds.com. Cation-adjusted Mueller Hinton Broth (Becton, Dickinson and Company, MD, USA) was used as basic medium.

E. coli CA-20 = assay: MIC assessment (TREK Sensititre); format: cell-based, Escherichia coli
Protocol: (§2) Bacterial strains. Multiple Amp^r strains from feces of broiler chickens without antibiotic treatment were recovered on Columbia blood Agar base (Becton, […] Dickinson and Company, Franklin Lakes, NJ) supplemented with 5% defibrinated sheep blood (Thermo Scientific™, Grand Island, NY). The strains were maintained in Columbia broth (Becton Dickinson and Company, Franklin Lakes, NJ), and propagated by aerobic growth at 37° C., and further subjected to strain identification and Minimum Inhibition Concentration (MIC) assessments.
as §1

E. coli CA-4 = assay: MIC assessment (TREK Sensititre); format: cell-based, Escherichia coli
Protocol: as §2, §1

[1] = tested on: Lactobacillus crispatus CG-12; assay: MIC assessment (TREK Sensititre); format: cell-based
Protocol: (§3) Multiple commensal bacterial strains from chicken feces were recovered from Columbia blood Agar base (Becton, […] Dickinson and Company, Franklin Lakes, NJ) supplemented with 5% defibrinated sheep blood (Thermo Scientific™, Grand Island, NY), and maintained in Columbia broth (Becton Dickinson and Company, Franklin Lakes, NJ) and propagated by anaerobic growth at 37° C. The strains were subjected to antibiotic susceptibility assessment followed by strain identification.
as §1

Three Amp^r E. coli = assay: MIC assessment, summary for the three strains; format: cell-based, Escherichia coli; settings: E. coli CA-1, CA-4 and CA-20 together
Protocol: as §2, §1

CG-12 = assay: Screening of antibiotic susceptible commensal strains on antibiotic agar plates; format: cell-based, Lactobacillus crispatus; settings: 16 μg/mL tetracycline, 100 μg/mL erythromycin, 32 μg/mL ampicillin, 152 μg/mL sulfamethoxazole with 8 μg/mL trimethoprim
Protocol: as §3
Screening of antibiotic susceptible commensal strains. Recovered commensal strain isolates (over 1000 colonies) were spotted on Columbia broth (Becton, […] Dickinson and Company, Franklin Lakes, NJ) agar plates containing each of the four antibiotics for rapid assessment of phenotypic resistance profiles. Screened antibiotics included 16 μg/mL tetracycline (Sigma-Aldrich, St. Louis, MO, USA), 100 μg/mL erythromycin (Fisher Scientific, Waltham, MA, USA), 32 μg/mL ampicillin (Sigma-Aldrich), and 152 μg/mL sulfamethoxazole (Sigma-Aldrich) with 8 μg/mL trimethoprim (Sigma-Aldrich).

[2] = tested on: poultry fecal/gut microbiota (Proteobacteria, ESBL E. coli); assay: Chicken study, metagenomics assessment #1 of pooled feces (FIG. 5); format: in vivo, chickens; settings: Tween 80 treatment (Lanes 6, 8)
Description: FIGS. 5A and 5B show the impact of probiotic treatment on bacterial population in pooled feces of chickens. FIG. 5A) Phylum level; FIG. 5B) Class level. The treatments include Lane 1 (no, cocktail, no): no ESBL E. coli inoculation for 4 days, then inoculated with probiotic cocktail but no Tween 80; Lane 2 (no; no, no): no E. coli, no probiotics, no Tween 80; Lane 3: (probiotics, E. coli, no): probiotic cocktail for 4 days, followed by E. coli, but no Tween 80); Lane 4 (Yes, CG12, no): E. coli for 4 days, followed by Lb. crispatus (WZ12) for 4 days but no Tween 80; Lane 5 (yes, cocktail, no): E. coli for 4 days, followed by probiotic cocktail for 4 days, no Tween; Lane 6 ((yes, cocktail, yes): E. coli for 4 days, followed by probiotic cocktail for 4 days, with Tween 80; Lane 7 (Yes, no, no): E. coli for 4 days, saline for 4 days (no probiotics no Tween); Lane 8 (yes, no, yes): ESBL E. coli for 4 days, no probiotics but with Tween 80 for 4 days.
Animal Studies. The probiotics as disclosed herein were applied to chickens raised in a poultry facility, with the aim to examine the effectiveness of the treatment phenotypically and genetically (fecal microbiota) and physiologically (chickens); and to adjust receipt and procedure of feeding if necessary.
Treatments effective in modulating gut microbiota. […]

[3] = Escherichia coli, CA1, E. coli CA-1, read-out: MIC
[4] = Escherichia coli, CA20, E. coli CA-20, read-out: MIC
[5] = Escherichia coli, CA4, E. coli CA-4, read-out: MIC
[6] = Lactobacillus crispatus, CG12, L. crispatus CG-12, read-out: MIC

Compound | MIC (E. coli CA-1; [3]) [µg/mL] | MIC (E. coli CA-20; [4]) [µg/mL] | MIC (E. coli CA-4; [5]) [µg/mL] | MIC [1, 6] [µg/mL] | resistance phenotype from MIC, in words (Three Amp^r E. coli) | also measured
CCCCCCCCCC(=O)N[C@@H](Cc1c[nH]c2ccccc12)C(=O)N[C@H](CC(N)=O)C(=O)N[C@@H](CC(=O)O)C(=O)N[C@@H]1C(=O)NCC(=O)N[C@@H](CCCN)C(=O)N[C@@H](CC(=O)O)C(=O)N[C@H](C)C(=O)N[C@@H](CC(=O)O)C(=O)NCC(=O)N[C@H](CO)C(=O)N[C@@H]([C@H](C)CC(=O)O)C(=O)N[C@@H](CC(=O)c2ccccc2N)C(=O)O[C@@H]1C [DAP, daptomycin] | > 8 | > 8 | > 8 | 4 (≈ 2.47 µM) | resistant | resistance phenotype from MIC, in words ([1]; L. crispatus CG-12): resistant
CO[C@H]1/C=C/O[C@@]2(C)Oc3c(C)c(O)c4c(O)c(c(/C=N/N5CCN(C)CC5)c(O)c4c3C2=O)NC(=O)/C(C)=C\C=C\[C@H](C)[C@H](O)[C@@H](C)[C@@H](O)[C@@H](C)[C@H](OC(C)=O)[C@@H]1C [RIF, rifampin] | 4 (≈ 4.86 µM) | 4 (≈ 4.86 µM) | > 4 | 1 (≈ 1.22 µM) | – | –
CN[C@H](CC(C)C)C(=O)N[C@H]1C(=O)N[C@@H](CC(N)=O)C(=O)N[C@H]2C(=O)N[C@H]3C(=O)N[C@H](C(=O)N[C@H](C(=O)O)c4cc(O)cc(O)c4-c4cc3ccc4O)[C@H](O)c3ccc(c(Cl)c3)Oc3cc2cc(c3O[C@@H]2O[C@H](CO)[C@@H](O)[C@H](O)[C@H]2O[C@H]2C[C@](C)(N)[C@H](O)[C@H](C)O2)Oc2ccc(cc2Cl)[C@H]1O [VAN, vancomycin] | – | – | – | – | resistant | MIC (E. coli CA-1; Escherichia coli, CA1): > 128 µg/mL; MIC (E. coli CA-20; Escherichia coli, CA20): > 128 µg/mL; MIC (E. coli CA-4; Escherichia coli, CA4): > 128 µg/mL; MIC ([1]; Lactobacillus crispatus, CG12): < 1 µg/mL
penicillin | – | – | – | – | high resistance | MIC (E. coli CA-1; E. coli CA-1): >8 µg/mL; MIC (E. coli CA-20; E. coli CA-20): >8 µg/mL; MIC (E. coli CA-4; E. coli CA-4): >8 µg/mL; MIC ([1]; L. crispatus CG-12): 0.5 µg/mL
[H]/N=C(/N)N[C@H]1[C@H](O)[C@@H](O)[C@H](O[C@@H]2O[C@@H](C)[C@](O)(C=O)[C@H]2O[C@@H]2O[C@@H](CO)[C@H](O)[C@@H](O)[C@@H]2NC)[C@@H](N/C(N)=N\[H])[C@@H]1O [STR, streptomycin] | < 1000 | < 1000 | < 1000 | < 1000 | – | –
quinupristin/dalfopristin [SYN] | – | – | – | – | – | MIC (E. coli CA-1; E. coli CA-1): >4 µg/mL; MIC (E. coli CA-20; E. coli CA-20): >4 µg/mL; MIC (E. coli CA-4; E. coli CA-4): >4 µg/mL; MIC ([1]; L. crispatus CG-12): 0.25 µg/mL
gentamicin | – | – | – | – | – | MIC (E. coli CA-1; E. coli CA-1): 4 µg/mL; MIC (E. coli CA-20; E. coli CA-20): 8 µg/mL; MIC (E. coli CA-4; E. coli CA-4): 4 µg/mL; MIC ([1]; L. crispatus CG-12): 16 µg/mL
CN(C)[C@@H]1C(O)=C(C(N)=O)C(=O)[C@@]2(O)C(O)=C3C(=O)c4c(O)cccc4[C@@](C)(O)[C@H]3C[C@@H]12 [TET, tetracycline] | < 2 | < 2 | < 2 | < 2 | – | –
CC(=O)NC[C@H]1CN(c2ccc(N3CCOCC3)c(F)c2)C(=O)O1 [LZD, linezolid] | > 8 | > 8 | > 8 | 2 (≈ 5.93 µM) | resistant | –
CCC[C@@H]1C[C@@H](C(=O)N[C@@H]([C@H]2O[C@H](SC)[C@H](O)[C@@H](O)[C@H]2O)[C@H](C)Cl)N(C)C1 [CLI, clindamycin] | > 2 | > 2 | > 2 | < 0.12 | – | –
sulfamethoxazole/trimethoprim [SXT] | – | – | – | – | – | MIC ([1]; L. crispatus CG-12): 2/38; phenotypic susceptibility on antibiotic agar plates (CG-12): susceptible
oxacillin + 2% NaC [OXA+] | – | – | – | – | high resistance | MIC (E. coli CA-1; E. coli CA-1): >8 µg/mL; MIC (E. coli CA-20; E. coli CA-20): 8 µg/mL; MIC (E. coli CA-4; E. coli CA-4): >8 µg/mL; MIC ([1]; L. crispatus CG-12): <0.25 µg/mL
C[C@H]1COc2c(N3CCN(C)CC3)c(F)cc3c(=O)c(C(=O)O)cn1c23 [LEVO, levofloxacin] | < 0.25 | < 0.25 | < 0.25 | > 8 | – | –
COc1c(N2CCNC(C)C2)c(F)cc2c(=O)c(C(=O)O)cn(C3CC3)c12 (stereo not drawn) [GAT, gatifloxacin] | < 1 | < 1 | < 1 | 4 (≈ 10.7 µM) | – | resistance phenotype from MIC, in words ([1]; L. crispatus CG-12): resistant
CO/N=C(\C(=O)N[C@@H]1C(=O)N2C(C(=O)O)=C(CSc3nc(=O)c(=O)[nH]n3C)CS[C@H]12)c1csc(N)n1 [AXO, ceftriaxone] | < 8 | 16 (≈ 28.9 µM) | < 8 | < 8 | – | resistance phenotype from MIC, in words (E. coli CA-20; only E. coli CA-20): some resistant
O=C(O)c1cn(C2CC2)c2cc(N3CCNCC3)c(F)cc2c1=O [CIP, ciprofloxacin] | – | – | – | > 2 | – | resistance phenotype from MIC, in words ([1]; L. crispatus CG-12): resistant
CCCCCCCC/C=C\CCCCCCCC(=O)OCCOCC(OCCO)C1OCC(OCCO)C1OCCO (stereo not drawn) [Tween 80] | – | – | – | – | – | effect on fecal microbiota [2]: assisted the colonization of Proteobacteria but not the Firmicutes
CC[C@H]1OC(=O)[C@H](C)[C@@H](O[C@H]2C[C@@](C)(OC)[C@@H](O)[C@H](C)O2)[C@H](C)[C@@H](O[C@@H]2O[C@H](C)C[C@H](N(C)C)[C@H]2O)[C@](C)(O)C[C@@H](C)C(=O)[C@H](C)[C@@H](O)[C@]1(C)O [ERY, erythromycin] | > 4 | > 4 | > 4 | < 0.25 | resistant | phenotypic susceptibility on antibiotic agar plates (CG-12): susceptible
